In patent publication US20220244245A1, “A METHOD OF PROFILING THE ENERGETIC METABOLISM OF A POPULATION OF CELLS” (INSERM (Institut National de la Santé et de la Recherche …, priority 2019, published 2022):

Columns and labels:
MEFs = assay: ATP measurement (Cell titer-Glo luminescence) in MEFs; assay type: cell-based, mouse
Description: 20×104 MEFs were seeded in 100 µl of 5% FCS DMEM culture media ON in opaque 96 well plates. After, 100 ul of Cell titer-Glo luminiscence ATP reconstituted buffer and substrate (Promega, Cat. No. G7570) was added to each well and Luminiscence was measured after 10 minutes following manufacturer instructions. A standard curve with ATP was performed using the same kit and following manufacturer instructions.

Flt3L-bmDC = assay: ZENITH: protein synthesis (puromycin incorporation, flow cytometry) in Flt3L-bmDC subsets, WT and PERK KO; assay type: cell-based, mouse; settings: short 2-DG treatment; DC subsets from WT PERKflox/flox and CD11c-CRE PERKflox/flox (PERK KO)
Description: Mouse splenocytes from WT C57BL/6J (Jackson) or PERK KO C57BL/6J background mice (Zhang et al., 2002) were cultured in DMEM containing 5% of Fetal Calf Serum (FCS) and 50 μM of 2-Mercaptoethanol (Mouse cells culture media, MCCM) at 37° C. 5% of CO2 GM-CSF BM-derived dendritic cells (GM-bmDCs) were differentiated in vitro from the bone marrow of 6-8-week-old male mice, using GM-CSF, produced by J558L cells. Bone marrow progenitors were plated at 0.8×10^6 cells/ml, 5 ml/well in 6-well plates, and cultivated with RPMI (GIBCO), 5% FCS (Sigma-Aldrich), 20 μg/ml gentamycin (Sigma-Aldrich), 50 μM β-mercaptoethanol (VWR), and GM-CSF. The medium was replaced every 2 days; BM-derived DCs were used for experiments at day 6. Similarly, FLT3L BM-derived dendritic cells (FLT3L-bmDCs) were differentiated by adding FLT3L to RPMI, 10% of Fetal Calf Serum (FCS) and 50 μM of 2-Mercaptoethanol (Mouse cells culture media, MCCM) during 6 days at 37° C. 5% of CO2. To obtain splenocytes, eight weeks old wild type C57BL/6J mice were sacrificed by cervical dislocation and splenectomized. Single cells suspentions from the spleens were generated and cultured in MCCM as previously described. […]
Flow cytometry was conducted using BD LSR II and BD LSR Fortessa X-20 machine (BD Biosciences™) and data were analyzed with FlowJo (Tree Star™) and/or Cytobank. […]

## C[C@@H]1C[C@@H]([C@H](O)CC2CC(=O)NC(=O)C2)C(=O)[C@@H](C)C1 [CHX, Cycloheximide]
MEFs; MEFs, added on top of Oligo+2-DG, 5 minutes of treatment, compared to Oligo+2-DG treatment (Co), FIG. 2A
  pool of ATP: significantly higher

## CC[C@H]1/C=C/C=C/C[C@@H](C)[C@H](O)[C@@](C)(O)C(=O)[C@@H](C)[C@H](O)[C@@H](C)C(=O)[C@@H](C)[C@H](O)[C@@H](C)/C=C/C(=O)O[C@@H]2[C@H](C)[C@H](CC1)O[C@]1(CC[C@H](C)[C@H](C[C@@H](C)O)O1)[C@H]2C [Oligomycin]
MEFs; MEFs treated 20-30 minutes with the metabolic inhibitor, FIGS. 3A and 3B
  levels of ATP: unchanged

## O=CC[C@@H](O)[C@H](O)[C@H](O)CO [2-DG, 2-Deoxy-D-Glucose]
Flt3L-bmDC
  protein synthesis in response to 2-DG: decrease protein synthesis
